Source: patent US10221139B2, “Inhibitors of histone demethylases” (Gilead Sciences, Inc., priority 2012, dated 2019)
pEC50, pIC50: −log10 of the molar value.

Key:
[1] = system: MCF7 cells; assay: MCF7 cell proliferation assay (ATPlite); type: cell-based; conditions: Homo sapiens, 120 hours
Description: MCF7 cells were seeded at 1250 cells/well in 50 μl medium/well in black 96 well plates. Cells were incubated for 24 hours before addition of compound. Compounds were diluted in complete medium (50 μl/well) and added to the plates in duplicates. The total volume of medium in the wells was 100 μl, and the final concentration of DMSO 0.5%. Complete medium used was DMEM with GlutaMAX containing 10% FBS and pen/strep.
120 hours after addition of compounds, the plates were harvested and analyzed by ATPlite 1 Step (Perkin Elmer, cat no 6016739) according to the manufactures recommendation. Briefly, 100 μl ATP lite solution was added to each well, plates were vortexed at 700 rpm 2 minutes, followed by 20 minutes incubation in the dark, and then analyzed for luminescence on EnSpire 2300 Mulitilabel reader (Perkin Elmer). EC50 values were calculated using GraphPad Prism 6.

[2] = target: T1, GASC1 (KDM4C, JMJD2C) (Homo sapiens, UniProt Q9H3R0); assay: Histone lysine demethylase AlphaLISA assay, GASC1; type: biochemical; conditions: substrate BK9M3
T1 construct: 1-349; host or cells: E. coli
T1 sequence (Q9H3R0 1-349): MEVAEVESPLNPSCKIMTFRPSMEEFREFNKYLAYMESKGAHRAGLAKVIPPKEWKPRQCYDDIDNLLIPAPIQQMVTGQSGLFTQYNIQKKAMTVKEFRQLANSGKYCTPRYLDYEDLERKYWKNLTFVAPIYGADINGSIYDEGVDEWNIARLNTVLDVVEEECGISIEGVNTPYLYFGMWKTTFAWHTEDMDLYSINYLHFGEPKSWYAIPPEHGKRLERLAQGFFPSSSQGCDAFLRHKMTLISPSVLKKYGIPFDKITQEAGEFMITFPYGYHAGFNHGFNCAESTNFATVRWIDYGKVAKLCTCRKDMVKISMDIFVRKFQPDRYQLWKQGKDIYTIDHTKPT
Description: (§1) Example 2: Histone Lysine Demethylase AlphaLISA Assays for IC50 Value Determination
(§2) Assays are performed analogously to the protocol described by Perkin Elmer (Roy et al. Perkin Elmer Technical Note: AlphaLISA #12, April 2011).
(§3) Enzymes are dissolved in enzyme buffer and incubated for 10 min before 5 μL is added to 5 μL 3% DMSO solutions of compounds in enzyme buffer. Incubated for another 10 minutes, before 5 μL substrate solution is added and the reaction mixture is incubated at room temperature for the given period. 10 μL acceptor beads, suspended at given dilutions in Epigenetic Buffer (Perkin Elmer AL008) from stock, are added and the suspension is incubated 60 minutes in the dark at room temperature, before 10 μL suspension (at the given dilutions in Epigenetic Buffer) of streptavidin donor beads (Perkin Elmer 6760002) in Epigenetic Buffer is added. After incubation at room temperature in the dark the plates are read. Reaction conditions are seen in Table 2b.

[3] = target: T2, UTX (KDM6A) (Homo sapiens, UniProt O15550); assay: Histone lysine demethylase AlphaLISA assay, UTX; type: biochemical; conditions: substrate BK27M3
T2 construct: 919-1401; host or cells: E. coli
T2 sequence (O15550 919-1401): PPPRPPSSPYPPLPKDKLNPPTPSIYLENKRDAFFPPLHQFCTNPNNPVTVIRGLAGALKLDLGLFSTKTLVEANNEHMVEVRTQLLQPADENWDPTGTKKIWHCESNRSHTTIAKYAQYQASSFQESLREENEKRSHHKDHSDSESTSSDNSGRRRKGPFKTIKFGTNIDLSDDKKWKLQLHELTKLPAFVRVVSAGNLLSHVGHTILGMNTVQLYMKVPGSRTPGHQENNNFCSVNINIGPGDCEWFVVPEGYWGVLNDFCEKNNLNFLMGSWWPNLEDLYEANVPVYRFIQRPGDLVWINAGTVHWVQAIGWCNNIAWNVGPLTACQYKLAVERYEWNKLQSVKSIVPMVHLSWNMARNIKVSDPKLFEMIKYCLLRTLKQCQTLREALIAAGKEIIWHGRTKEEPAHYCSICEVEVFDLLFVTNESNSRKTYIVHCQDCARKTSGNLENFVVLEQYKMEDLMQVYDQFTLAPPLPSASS
Description: as §1, §2, §3

[4] = target: T3, PLU1 (KDM5B) (Homo sapiens, UniProt Q9UGL1); assay: Histone lysine demethylase AlphaLISA assay, PLU1; type: biochemical; conditions: substrate H3K4M3B
T3 construct: 1-809; host or cells: E. coli
T3 sequence (Q9UGL1 1-809): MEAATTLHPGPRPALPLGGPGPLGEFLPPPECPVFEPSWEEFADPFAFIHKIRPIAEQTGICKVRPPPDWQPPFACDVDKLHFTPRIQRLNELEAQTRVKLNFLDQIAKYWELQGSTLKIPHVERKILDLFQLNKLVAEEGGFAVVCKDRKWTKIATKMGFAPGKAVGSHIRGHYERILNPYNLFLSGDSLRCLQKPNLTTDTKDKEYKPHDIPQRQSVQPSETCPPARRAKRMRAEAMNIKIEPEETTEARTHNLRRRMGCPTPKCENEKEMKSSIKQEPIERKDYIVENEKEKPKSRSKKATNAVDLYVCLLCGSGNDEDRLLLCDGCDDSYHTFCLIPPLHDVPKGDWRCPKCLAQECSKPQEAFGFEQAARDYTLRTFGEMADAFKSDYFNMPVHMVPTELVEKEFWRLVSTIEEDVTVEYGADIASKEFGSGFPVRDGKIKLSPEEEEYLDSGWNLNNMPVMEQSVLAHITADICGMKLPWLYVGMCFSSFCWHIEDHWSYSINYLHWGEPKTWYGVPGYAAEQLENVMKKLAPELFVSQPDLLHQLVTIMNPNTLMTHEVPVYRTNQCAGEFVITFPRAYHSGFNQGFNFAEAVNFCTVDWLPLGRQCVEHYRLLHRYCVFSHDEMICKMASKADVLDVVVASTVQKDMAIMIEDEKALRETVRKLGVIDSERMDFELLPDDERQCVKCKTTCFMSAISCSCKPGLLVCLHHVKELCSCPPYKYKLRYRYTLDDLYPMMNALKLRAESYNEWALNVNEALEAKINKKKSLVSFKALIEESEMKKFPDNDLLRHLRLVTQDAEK
Description: as §1, §2, §3

Row | SMILES | pEC50 [1] | pIC50 [2] | pIC50 [3] | pIC50 [4]
1 | CCN(CCN(C)C)C(=O)CNCc1cc(C(=O)OC(C)CCNC(=O)C(F)(F)F)ccn1 (stereo not drawn) [drawing 280, 4-(trifluoroacetamido)butan-2-yl 2-{[({[2-(dimethylamino)ethyl](ethyl)carbamoyl}methyl)amino]methyl}pyridine-4-carboxylate] | > 6.00 |  |  | 
2 | CCN(CCN(C)C)C(=O)CNCc1cc(C(=O)OCC(F)F)ccn1 [drawing 295, 2,2-difluoroethyl 2-{[({[2-(dimethylamino)ethyl](ethyl)carbamoyl}methyl)amino]methyl}pyridine-4-carboxylate] | > 6.00 |  |  | 
3 | CCOC(=O)Nc1ccc(COC(=O)c2ccnc(CNCCCCN(CC)CC)c2)cc1 [drawing 272, {4-[(ethoxycarbonyl)amino]phenyl}methyl 2-({[4-(diethylamino)butyl]amino}methyl)pyridine-4-carboxylate] | 4.30 to 6.00 |  |  | 
4 | CCN(CCN(C)C)C(=O)CNCc1cc(C(=O)N(C)S(C)(=O)=O)ccn1 [drawing 288, 2-{[({[2-(dimethylamino)ethyl](ethyl)carbamoyl}methyl)amino]methyl}-N-methanesulfonyl-N-methylpyridine-4-carboxamide] | > 6.00 |  |  | 
5 | CCN(CCN(C)C)C(=O)CNCc1cc(C(=O)O)ccn1 [drawing 268, 2-{[({[2-(dimethylamino)ethyl](ethyl)carbamoyl}methyl)amino]methyl}pyridine-4-carboxylic acid] | 4.30 to 6.00 |  |  | 
6 | CCN(CCN(C)C)C(=O)CNCc1cc(C(=O)OC(CNC(=O)C(F)(F)F)CC(=O)OC(C)C)ccn1 (stereo not drawn) [drawing 290, propan-2-yl 3-(2-{[({[2-(dimethylamino)ethyl](ethyl)carbamoyl}methyl)amino]methyl}pyridine-4-carbonyloxy)-4-(trifluoroacetamido)butanoate] | 4.30 to 6.00 |  |  | 
7 | O=C(O)c1ccnc(CNCCCNCCOc2ccccc2)c1 [drawing 266, 2-[({3-[(2-phenoxyethyl)amino]propyl}amino)methyl] pyridine-4-carboxylic acid] | 4.30 to 6.00 |  |  | 
8 | CCCCCCCCCCCCCCCC(=O)OCC(COC(=O)CCCCCCCCCCCCCCC)OC(=O)c1ccnc(CNCC(=O)N(CC)CCN(C)C)c1 [drawing 285, 2-(2-{[({[2-(dimethylamino)ethyl](ethyl)carbamoyl}methyl)amino]methyl}pyridine-4-carbonyloxy)-3-(hexadecanoyloxy)propyl hexadecanoate] | > 6.00 |  |  | 
9 | Cn1c(CNCc2cc(C(=O)O)ccn2)nc2ccccc21 [drawing 259] | 4.30 to 6.00 |  |  | 
10 | COc1ccccc1CN1CCC(NC(=O)CNCc2cc(C(=O)O)ccn2)CC1 [drawing 262] | 4.30 to 6.00 |  |  | 
11 | CCN(CC)CCCCNCc1cc(C(=O)OCCCN(C)C)ccn1 [drawing 271, 3-(dimethylamino)propyl 2-({[4-(diethylamino)butyl]amino}methyl)pyridine-4-carboxylate] | 4.30 to 6.00 |  |  | 
12 | CCOC(=O)N(C)c1ccc(COC(=O)c2ccnc(CNCCCCN(CC)CC)c2)cc1 [drawing 277, {4-[(ethoxycarbonyl)(methyl)amino]phenyl}methyl 2-({[4-(diethylamino)butyl]amino}methyl)pyridine-4-carboxylate] | > 6.00 |  |  | 
13 | CCN(CC)CCCCNCc1cc(C(=O)Oc2c(OC)cccc2OC)ccn1 [drawing 273, 2,6-dimethoxyphenyl 2-({[4-(diethylamino)butyl]amino}methyl)pyridine-4-carboxylate] | > 6.00 |  |  | 
14 | C=CCN(CC=C)C(=O)CNCc1cc(C(=O)O)ccn1 [drawing 260, 2-[({[bis(prop-2-en-1-yl)carbamoyl]methyl}amino)methyl]pyridine-4-carboxylic acid] | 4.30 to 6.00 |  |  | 
15 | CCN(CCN(C)C)C(=O)CNCc1cc(C(=O)N2CCOC2=O)ccn1 [drawing 289, N-[2-(dimethylamino)ethyl]-N-ethyl-2-({[4-(2-oxo-1,3-oxazolidine-3-carbonyl)pyridin-2-yl]methyl}amino)acetamide] | 4.30 to 6.00 |  |  | 
16 | CCOC(=O)c1ccnc(CNCC(=O)N(CC)CCN(C)C)c1 [drawing 282, ethyl 2-{[({[2-(dimethylamino)ethyl](ethyl)carbamoyl}methyl)amino]methyl}pyridine-4-carboxylate] | > 6.00 |  |  | 
17 | CCN(CCN(C)C)C(=O)CNCc1cc(C(=O)OCCF)ccn1 [drawing 294, 2-fluoroethyl 2-{[({[2-(dimethylamino)ethyl](ethyl)carbamoyl}methyl)amino]methyl}pyridine-4-carboxylate] | > 6.00 |  |  | 
18 | C=CC(CCNC(=O)C(F)(F)F)OC(=O)c1ccnc(CNCC(=O)N(CC)CCN(C)C)c1 (stereo not drawn) [drawing 283, 5-(trifluoroacetamido)pent-1-en-3-yl 2-{[({[2-(dimethylamino)ethyl](ethyl)carbamoyl}methyl)amino]methyl}pyridine-4-carboxylate] | > 6.00 |  |  | 
19 | CCN1CCCC1CNC(=O)CNCc1cc(C(=O)O)ccn1 (stereo not drawn) [#26, 2-{[({[(1-ethylpyrrolidin-2-yl)methyl]carbamoyl}methyl)amino]methyl}pyridine-4-carboxylic acid] |  | > 7.00 | ≤ 6.00 | > 7.00
20 | CCN(CC)CCCCNCc1cc(C(=O)Oc2c(C)cccc2C)ccn1 [#57, 2,6-dimethylphenyl 2-({[4-(diethylamino)butyl]amino}methyl)pyridine-4-carboxylate] |  | ≤ 6.00 | ≤ 6.00 | > 7.00
21 | CN(CCCc1nccn1C)C(=O)CNCc1cc(C(=O)O)ccn1 [#25, 2-{[({methyl[3-(1-methyl-1H-imidazol-2-yl)propyl]carbamoyl}methyl)amino]methyl}pyridine-4-carboxylic acid] |  | > 7.00 | ≤ 6.00 | > 7.00
22 | CCN(CCC#N)C(=O)CNCc1cc(C(=O)O)ccn1 [#33, 2-[({[(2-cyanoethyl)(ethyl)carbamoyl]methyl}amino)methyl]pyridine-4-carboxylic acid] |  | > 7.00 | ≤ 6.00 | > 7.00
23 | O=C(O)c1ccnc(CNCC(=O)N2CCCC(Cc3nc4ccccc4[nH]3)C2)c1 (stereo not drawn) [#38, 2-[({2-[3-(1H-1,3-benzodiazol-2-ylmethyl)piperidin-1-yl]-2-oxoethyl}amino)methyl]pyridine-4-carboxylic acid] |  | > 7.00 | ≤ 6.00 | > 7.00
24 | O=C(O)c1ccnc(CNCCF)c1 [#8, 2-{[(2-fluoroethyl)amino]methyl}pyridine-4-carboxylic acid] |  | 6.00 to 7.00 | ≤ 6.00 | 6.00 to 7.00
25 | O=C(O)c1ccnc(CNCC2CC2)c1 [#4, 2-{[(cyclopropylmethyl)amino]methyl}pyridine-4-carboxylic acid] |  | 6.00 to 7.00 | ≤ 6.00 | > 7.00
26 | O=C(O)c1ccnc(CNCCCNCCOc2ccccc2)c1 [#41, 2-[({3-[(2-phenoxyethyl)amino)propyl}amino)methyl]pyridine-4-carboxylic acid] |  | > 7.00 | ≤ 6.00 | > 7.00
